The values that follow come from US5219825A, “Synergistic herbicidal compositions comprising herbicides which generate toxic oxygen radicals and chelating agents which inhibit their detoxification” (Yeda Research and Development Co., Ltd., priority 1986, dated 1993).

Test [1] deals with isolated Asparagus sprengeri cells. As to the kind of experiment: Chlorophyll loss in isolated cells (synergism at the cellular level). The following applies: for chlorophyll remaining - % of control: paraquat 0 μM, 14 h, 1000 μEin m^-2 s^-1; for % of control chlorophyll: DDC 0.02% where added, 40 h, low light 305 μEin m^-2 s^-1. Format: cell-based. The procedure: Isolated cells offer an excellent rapid method of screening for phytotoxicity using a large number of potential chelators and synergists. Asparagus sprengeri cells were isolated from cladophylls of field grown plants using the procedure of Colman et al. (Can. J. Botany 57 1505, (1979)) except that the isolation, washing and culture buffer was 50 mM HEPES brought to pH 7.2 with KOH. The cladophylls were surface sterilized using 80% aqueous ethanol. After three centrifugations to remove broken cells, the cells were diluted to 10% packed volume and 0.75 ml were placed in each well of cluster dishes. The potential synergists in this example 0.02% w/v final concentration diethyldithiocarbamate (DDC) and an oxime of 4-octyl-2-acetyl-phenol (U.S. Pat. No. 4,215,219) which complex primarily with copper and di-2-ethylhexyl-phosphoric acid which complexes primarily with zinc (Flett, Chem and Ind. 17 706, (1977)) was placed with the herbicides atrazine and paraquat. All additions were made at 100 fold the final concentration of herbicide and synergist. Paraquat was dissolved in water and atrazine in methanol. The cluster dishes were incubated on a reciprocal shaker with a clear plastic bottom and illuminated from top and bottom with fluorescent lights emitting 135 μEin.m^-2 s^-1 (top) and 170 μEin.m^-2 s^-1 (bottom). The cells were kept mixed by the shaker and incubation was at room temperature. Incubation was stopped when there was visually obvious loss of chlorophyll due to treatments in a given experiment. The cells were removed to glass centrifugation tubes, centrifuged and the supernatant removed. One ml of 80% aqueous acetone was added to extract chlorophyll, the debris were sedimented by centrifugation and chlorophyll was spectrophotometrically determined at 645 and 663 nm according to Arnon (Plant Physiology 24 1, (1949)). […] In another experiment, a larger variety of chelating synergists and oxidant generating herbicides were used, and light was given at a much higher intensity 1000 μEin m^-2 s^-1 to better approach natural sunlight which is at 1200-1500 […].
Paraquat toxicity was measured 24 h after treatment and atrazine toxicity was measured 40 h after treatment.
Paraquat toxicity was measured 14 h after treatment.

For a further test, the system named is bean leaf discs. Put plainly: Bean leaf disc bleaching assay. It counts as cell-based. The settings on record: 5 h at 450 μEin.m^-2 s^-1. The procedure: We used this bean leaf disc system to ascertain the potential of chelators to synergize a large variety of phytotoxicants purported to act by generating active oxygen species in the light.
Bean discs were incubated on solutions containing the above mixtures for 5 h at 450 μEin.m^-2 s^-1 and the chlorophyll remaining in the leaves was assayed.

The test system of test [2] is Conyza bonariensis paraquat tolerant (high herbicide requiring) biotype. As to the kind of experiment: Malonyldialdehyde in tissue (lipoxidation, membrane damage) after spraying. It counts as in vivo. The following applies: for membrane damage (malonyldialdehyde release): DDC 0.5% where added, high herbicide requiring biotype, untreated control = 100; for malonyldialdehyde in tissue (% untreated control): tolerant biotype. The protocol: (§1) Seeds of two biotypes of Conyza bonariensis (L.) Cronq. (synonym C. linifolia) were obtained from Egypt. The paraquat sensitive biotype was gathered near Alexendria and seeds of the resistant type from the Tahrir irrigation district. They were obtained from Dr. Martin Parham in England. Seeds were germinated in a growth room with a 14 h light period at 25° C. Plants were transferred out of doors 24 h before being sprayed. The phytotoxicity of three herbicides representative of the three different modes of generating active oxygen species known at present. Commercial paraquat (Gramoxone-ICI Plant Protection Ltd) was formulated with 0.1% (w/v) Tween-20 (a non-ionic surfactant) for spraying. The response to the range of 10^-5 M to 10^-2 M paraquat was measured by spraying two plants per concentration to run-off in the early morning. All plants were exposed to sunlight for at least 13 h (1300 μE.m^-2s^-1 photosynthetically active radiation (PAR) at mid day). Commercial acifluorfen (Blazer, Rohm, and Hass, Philadelphia, Pa., USA) to which was added 0.25% Tween-20 was sprayed to run-off. The response to spraying was measured as with paraquat 24 h after spraying. Commercial atrazine (Atranex 50 WP-Agan) was sprayed at various rates in 0.25% Tween 20 to run off. Fully expanded, 8 to 10 cm long leaves from plants in the rosette stage were used in all experiments. Phytotoxicity of acifluorfen and paraquat was measured as CO2 fixation 24 h later as follows: Detached leaves were placed on wet filter paper in a sealed chamber with 5μ Ci^14 C-sodium bicarbonate. Tartaric acid was remotely dripped on the sodium bicarbonate to release ^14 CO2. Leaves were illuminated with […] (PAR) for 30 min. Eighty percent acetone was added and the mixture put under strong light to photobleach pigments and evaporate the acetone. A scintillation mixture of Lumax:xylene (45:55) was added to the leaves and remaining water. The samples were counted and the data expressed as DPM.cm^-2. Area was measured with a planimeter from photocopies of the leaves made prior to photosynthesis measurements. Phytotoxicity of atrazine was measured as the elevated level of malonyldialdehyde in the tissue. Malonyldialdehyde (as measured with thiobarbituric acid according to Dodge and Gillham (Asp. Appl. Biol 11 97 (1986)) is a measurement of lipoxidation of unsaturated fatty acids, and provides an excellent estimation of damage by active oxygen species.
(§2) ^b membrane damage was measured as malonyldialdehyde release
(§3) Similarly, both the paraquat resistant and sensitive biotypes of Conyza bonariensis were treated with two other oxidant generating herbicides. Atrazine (of the triazine group) is the most widely used oxidant generating herbicides in agriculture. We used various dilutions of a commercial wettable powder (Atranex 50WP-Agan Chemicals) to which we added 0.5% DDC. The effects were scored 24 h later. […] We also tested to see whether acifluorfen, a nitro diphenyl ether herbicide would be synergized. It is generally agreed that light and oxygen are required for its action via oxidant damage. We sprayed a commercial formulation of acifluorfen (Blazer, Rohm and Haas) to which were added 0.25% Tween-20 detergent, with and without DDC. The effects were scored 24 h later.

The subject of test [3] is Conyza bonariensis paraquat sensitive (low herbicide requiring) biotype. The description is as above. Format: in vivo. The following applies: for membrane damage (malonyldialdehyde release): DDC 0.5% where added, low herbicide requiring biotype, untreated control = 100; for malonyldialdehyde in tissue (% untreated control): sensitive biotype. The procedure:
as §1, §2, §3

Test [4] has as its system Conyza bonariensis low herbicide requiring biotype. As to the kind of experiment: Whole plant spray, visual rating. Format: in vivo. The settings on record: DDC 0.5% where added, scored one day after treatment.
Description: (§4) Seeds of Conyza bonariensis were germinated and plants cultivated as outlined in Example 1. Other species were germinated in a similar mixture and treated at 10 days.
(§5) The commercial fungicides, maneb [manganese ethylene-bis(dithiocarbamate) (polymeric)] and zineb [zinc ethylene-bis (dithiocarbamate) (polymeric)] were used, they have similar structures and effects as DDC, but are blocked and act as chelate controls […] to clarify that a synergism would be due to the chelating effect of diethyldithiocarbamate. […] They could not chelate copper due to their being blocked.
(§6) ^a visual ratings (scored 1 day after treatment): 0 no damage to
(§7) slight burn; 1 moderate burn (may regenerate); 2 severe burn (will die)
as §3

Test [5] has as its system Conyza bonariensis high herbicide requiring biotype. As to the kind of experiment: Whole plant spray, visual rating. It counts as in vivo. The settings on record: DDC 0.5% where added, high herbicide requiring biotype; for visual ratings: scored one day after treatment.
Description: as §4, §5, §6, §7, §3

The test system of test [6] is Conyza bonariensis low herbicide requiring biotype. Put plainly: Photosynthesis (14CO2 fixation) of leaf discs removed 5 h after spray treatment. The following applies: foliar, DDC 0.5% where added, leaf discs removed 5 h after treatment, untreated control = 100. Format: in vivo. The procedure:
as §3
^b photosynthesis (^14 CO2 fixation) was used as an
additional measurement of phytotoxicity. Leaf discs were removed 5 h afte
treatment for measurement

The test system of test [7] is Conyza bonariensis paraquat sensitive biotype. Put plainly: Phytotoxicity measured as 14CO2 fixation 24 h after spraying. Format: in vivo. The settings on record: sensitive biotype. The protocol: as §1
The subject of test [8] is Conyza bonariensis paraquat tolerant biotype. The test is described as above. It counts as in vivo. The settings on record: tolerant biotype. The procedure:
as §1

The next test deals with leaves. As to the kind of experiment: Blocked chelate controls tested for synergism with paraquat. It counts as in vivo.
Description: as §5

[9] abbreviates: atrazine 20 μM spray to run off.
The mark [10] stands for this setting: atrazine 40 μM spray to run off.
Where [11] appears, read: atrazine molar conc. 1.0 × 10^-2.
[12] abbreviates: atrazine molar conc. 1.5 (× 10^-2).
The mark [13] stands for this setting: atrazine molar conc. 2.0 (× 10^-2).
[14] abbreviates: atrazine molar conc. 3.0 (× 10^-2).
Where [15] appears, read: atrazine molar conc. 4.0 (× 10^-2).
[16] abbreviates: atrazine molar conc. 5.0 (× 10^-2).
Setting [17] is: atrazine 15 μM spray to run off.
Where [18] appears, read: atrazine 30 μM spray to run off.
[19] abbreviates: herbicide molar conc. 3.2 × 10^-3.

Regarding `CCCCCCCCc1ccc(O)c(C(C)=NO)c1` [4-Octyl-2-acetyl-phenol oxime, oxime of 4-octyl-2-acetyl-phenol], the “chlorophyll remaining - % of control” value in [1] (chelator alone 0.125%) is listed as 96 % of control.
Consider `NCCNCCNCCNCCN` [Tetraethylene-pentamine, tetraethylene pentamine], for which, in test [1] (chelator alone 0.025%), the “chlorophyll remaining - % of control” value was 99 % of control.
Consider `CCCCC(CC)COP(=O)(O)OCC(CC)CCCC` (stereo not shown) [di-2-ethyl-hexyl-phosphoric acid, Di-2-ethyl-hexyl phosphoric acid], for which the “chlorophyll - % of control” value in the test on bean leaf discs (acifluorfen 0 μM, chelator alone 0.01% w/v) was 98 % of control; with bean leaf discs (acifluorfen 0 μM, chelator alone 0.02% w/v) it was 91 % of control; with bean leaf discs (paraquat 0 μM, chelator alone 0.01% w/v), 98 % of control. Further, in [1] (chelator alone 0.001%), the “chlorophyll remaining - % of control” value is on record as 98 % of control.
`CCNc1nc(Cl)nc(NC(C)C)n1` [atrazine]: the “% of control chlorophyll” value in test [1] (atrazine 3 × 10^-6 M, 3 µM) is listed as 95 % of control; in test [1] (atrazine 10^-5, 10 µM) it was 92 % of control. Also, the “membrane damage (malonyldialdehyde release)” value in test [2] (setting [9]) stood at 100; in test [2] (setting [10]), 100; in test [3] (setting [9]), 130; in test [3] (setting [10]), 225. The “malonyldialdehyde in tissue (% untreated control)” value in test [2] (setting [11]) was 100 % untreated control; in test [2] (setting [12]), 100 % untreated control; in [2] (setting [13]), 100 % untreated control; in test [2] (setting [14]), 100 % untreated control; in test [2] (setting [15]), 100 % untreated control; in test [2] (setting [16]) it was 125 % untreated control. Besides, the “malonyldialdehyde in tissue (% untreated control)” value in test [3] (setting [11]) stood at 100 % untreated control; in test [3] (setting [12]) it was 135 % untreated control; in test [3] (setting [13]), 130 % untreated control; in test [3] (setting [14]) it was 155 % untreated control; in test [3] (setting [15]), 225 % untreated control; in test [3] (setting [16]) it was 320 % untreated control. Further, the visual ratings came to 2.1 in [4] (setting [17]), 2.3 in test [4] (setting [18]), 1.7 in [5] (setting [17]) and 1.7 in [5] (setting [18]).
`O=C(O)c1cc(Oc2ccc(C(F)(F)F)cc2Cl)ccc1[N+](=O)[O-]` [acifluorfen]: in the test with bean leaf discs (acifluorfen 3 μM, chelator 0.01% w/v where added), the “chlorophyll - % of control” value is recorded as 91 % of control. For the same compound, the activity at 3 µM in test [6] (acifluorfen 3 μM spray to runoff) came to 75%. For the same compound, the activity at 100 µM in test [6] (acifluorfen 100 μM spray to runoff) was 10%. For the same compound, in test [5] (acifluorfen 100 μM spray to runoff, scored 24 h after treatment), the visual rating is on record as 2.5. For the same compound, the “% photosynthesis inhibition” value in test [7] (setting [19]) came to 72%; in test [7] (herbicide molar conc. 3.2 × 10^-4) it was 40%; in test [7] (herbicide molar conc. 10^-2) it was 98%; in test [7] (herbicide molar conc. 10^-3), 58%; in [7] (herbicide molar conc. 10^-4), 23%; in test [8] (setting [19]) it was 67%. Moreover, the “% photosynthesis inhibition” value in test [8] (herbicide molar conc. 10^-2) is reported as 99%; in [8] (herbicide molar conc. 10^-3), 21%.
On to “zinc ethylene-bis (dithiocarbamate) (polymeric) [zineb]”, for which the “synergistic effects with paraquat” value in the test on leaves is reported as “Neither maneb nor zineb had synergistic effects with paraquat”.
On to `O=C(O)c1cccc(C(=O)O)n1` [Pyridine-2,6-dicarboxylic acid], for which the “chlorophyll remaining - % of control” value in test [1] (chelator alone 0.005%) is reported as 100 % of control.
For `NCCNCCNCCN` [Triethylene-tetramine], the “chlorophyll remaining - % of control” value in [1] (chelator alone 0.008%) is given as 90 % of control.
